Experimental findings from patent US5705498A, “Piperidine derivatives as 5-HT4 receptor antagonists” (SmithKline Beecham plc., priority 1992, dated 1998) are described below.

In this assay the target is T1, 5-HT4 receptor (Cavia porcellus, UniProt O70528).
T1 construct: Longitudinal muscle-myenteric plexus preparations, approximately 3 cm long, are obtained from the distal colon region; from tissue; host or cells: guinea-pig distal colon, longitudinal muscle-myenteric plexus preparation
Briefly: Guinea pig colon longitudinal muscle-myenteric plexus, antagonism of 5-HT-evoked contraction. Conditions: guinea-pig distal colon; contraction evoked by 5-HT; methiothepin 10^-7 M and granisetron 10^-6 M present; read-out: pIC50 (-log concentration of antagonist which reduces the contraction by 50%) (converted). The protocol:
Male guinea-pigs, weighing 250-400 g are used. Longitudinal muscle-myenteric plexus preparations, approximately 3 cm long, are obtained from the distal colon region. These are suspended under a 0.5 g load in isolated tissue baths containing Krebs solution bubbled with 5% CO2 in O2 and maintained at 37° C. In all experiments, the Krebs solution also contains methiothepin 10^-7 M and granisetron 10^-6 M to block effects at 5-HT1, 5-HT2 and 5-HT3 receptors.
After construction of a simple concentration-response curve with 5-HT, using 30 s contact times and a 15 min dosing cycle, a concentration of 5-HT is selected so as to obtain a contraction of the muscle approximately 40-70% maximum(10^-9 M approx). The tissue is then alternately dosed every 15 min with this concentration of 5-HT and then with an approximately equi-effective concentration of the nicotine receptor stimulant, dimethylphenylpiperazinium (DMPP). After obtaining consistent responses to both 5-HT and DMPP, increasing concentrations of a putative 5-HT4 receptor antagonist are then added to the bathing solution. The effects of this compound are then determined as a percentage reduction of the contractions evoked by 5-HT or by DMPP. […] A compound which reduces the response to 5-HT but not to DMPP is believed to act as a 5-HT4 receptor antagonist.

T1 sequence (O70528 whole entry): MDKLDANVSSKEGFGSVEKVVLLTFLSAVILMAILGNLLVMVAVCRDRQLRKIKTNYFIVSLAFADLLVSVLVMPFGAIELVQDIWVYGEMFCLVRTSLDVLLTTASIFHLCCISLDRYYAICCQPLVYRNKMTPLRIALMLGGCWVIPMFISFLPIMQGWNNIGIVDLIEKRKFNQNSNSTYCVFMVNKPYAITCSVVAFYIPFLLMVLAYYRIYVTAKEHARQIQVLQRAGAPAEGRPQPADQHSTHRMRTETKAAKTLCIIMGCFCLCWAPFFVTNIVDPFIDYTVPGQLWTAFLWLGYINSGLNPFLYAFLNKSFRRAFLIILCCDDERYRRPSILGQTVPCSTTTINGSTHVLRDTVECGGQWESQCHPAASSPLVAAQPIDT

Take `Nc1c(Cl)cc(C(=O)OCC2CCN(Cc3cccnc3)CC2)c2c1OCCO2` [Example E1, 5-(1-(3-Pyridylmethyl)-4-piperidinyl)methyl-8-amino-7-chloro-1,4-benzodioxancarboxylate]: the IC50 is under 1 nM.
